Measurements: publication PMC11695783 (Frontiers in Pharmacology, 2024)
≈ marks a conversion by molar mass, not a printed value. Where “and” joins values, the source holds several entries; their conditions need not be identical. Identical values can stand only once.

How the values were obtained:
[1] = tested on: Mycoplasma pneumoniae strain M129 (ATCC 29342); assay: Susceptibility assay (broth microdilution MIC, MBC); format: cell-based
Protocol: Mycoplasma pneumoniae strain M129 (ATCC 29342) was obtained from American Type Culture Collection (Manassas, VA, United States) and cultured at 37°C in the presence of 5% CO2 in the modified SP-4 liquid medium (pH 7.4) containing 2.1% (w/v) CM1166 mycoplasma broth base medium (Oxoid, Hants, United Kingdom), 20% (v/v) fetal bovine serum (FBS, Bioexplorer, CO, United States), 0.4% yeast extract (Oxoid), 0.55% (w/v) CMRL 1066 w/L-glutamine culture media powder (MyBioSource, San Diego, CA, United States), 1% D-glucose (Macklin) and 0.004% phenol red (Macklin). […] The solid medium is based on the above formula with the addition of 1% agar, and the characteristic fried egg-like colonies were used for experiments following incubation for 7 d on plates.
The broth microdilution MIC procedure was performed according to standardized methods for microdilution susceptibility testing of mycoplasma species ([Waites et al., 2012]). […] The concentration of organisms should be determined to approximately 10^6 CFU/mL prior to inoculation into 96-well plates. Due to the action of phenol red, the acidic metabolites of microbial growth can turn the medium yellow. […] The MBC assays were performed based on MICs following endpoint reading and the liquid in the high-concentration wells was removed for bacterial counting.

[2] = tested on: inflammatory cells in BALF (neutrophils, macrophages, lymphocytes); assay: Inflammatory cell analysis in BALF of M. pneumoniae-infected mice; format: in vivo, BALB/c mice; conditions: for cell counts, total (AV) / cell counts, 中 (neutrophils) (AV) / cell counts, 巨 (macrophages) (AV) / cell counts, 淋 (lymphocytes) (AV): Tiamulin(40mg/kg) group; for total number of inflammatory cells in BALF compared with the positive controls: 96 h
Protocol: (§1) Adult BALB/c mice (20–22 g) were divided into a control group, a positive group, and compound 16C groups at low (20 mg/kg), medium (40 mg/kg), and high-dose (80 mg/kg) levels and oral and intramuscular tiamulin treatment groups (40 mg/kg). We formulated the above dose range based on the dose at which tiamulin was approved for injection (10–20 mg/kg) and the dose previously reported (45 mg/kg) ([EMA, 1999]; [Xiao et al., 2016]). In summary, we selected similar doses for compound 16C in vivo study. 40 mg/kg was used as an intermediate value, one-half of it as a low dose, and two times of it as a high dose. To prepare the challenge solution, logarithmic phase culture suspensions were centrifuged at 1700 g for 10 min, and the pellets were suspended in sterile PBS to obtain 1 × 10^9 CFU/mL. Before the challenge, mice were anesthetized with tribromoethanol (250 mg/kg, IP). Mice in the control groups were intratracheally inoculated with sterile PBS, whereas mice in the other groups were intratracheally challenged with 50 μL (1 × 10^9 CFU/mL) M. pneumoniae suspension once a day for 3 days. Compound 16C and tiamulin (tiamulin-IM group) dissolved using the method mentioned in pharmacokinetic studies, and the tiamulin fumarate soluble powder was dissolved in ddH2O for oral administration. After the final challenge, antibiotics were administered at low, medium, and high-dose levels (see above) at 10 a.m. and 10 p.m. daily for 4 consecutive days. Normal saline containing 5% DMSO and 5% Tween-80 was administered as control and positive groups by thigh intramuscular injection. To compare the efficacy of compound 16C and tiamulin under the same route of administration, we used the original tiamulin for intramuscular administration in the same formulation. On the other hand, tiamulin fumarate soluble powder, approved for oral administration to treat animal mycoplasma diseases in China, was administered to mice by gavage. Based on a clinical study of lefamulin in community-acquired bacterial pneumonia (CABP), subjects were administered twice a day and the 96 ± 24 h of starting treatment was an essential point for early clinical response (ECR) ([Paukner et al., 2022]). We therefore stopped treatment at 96 h and sampled at 192 h to explore whether the disease worsened after cessation of treatment. Bronchoalveolar lavage fluid (BALF) and lungs were collected at 0, 96, 192 h (Samples of 0 h were collected before starting treatment, and mice were fed ad libitum without drug treatment during 96–192 h) after the first dose, BALF for cytokine and cytological analysis and lung for histopathological evaluation.
(§2) Bronchoalveolar lavage was performed according to a standardized method ([Van Hoecke et al., 2017]). BALF was obtained following infusion of 0.5 mL PBS via tracheal cannulation into the lung twice (total 1 mL), and 200 µL was used for mycoplasma counts. The remaining BALF was centrifuged at 300 g for 10 min to separate the debris. The supernatants were stored at −80°C, and the debris was resuspended in the same volume of PBS containing red blood cell lysis buffer. A hemocytometer was used to count total cell numbers in BALF, and cell smears (Diff-Quik staining) were prepared to calculate the percentages of neutrophils, macrophages, and lymphocytes. IFN-γ, TNF-α, and CXCL1 levels in BALF samples were assessed using commercial ELISA kits using guidelines recommended by the manufacturer (Elabscience, Wuhan, China). Parallel data for each experimental group at each time point were obtained from six different mice.

TNF-α = TNF-α in BALF of M. pneumoniae-infected mice (ELISA); format: in vivo, BALB/c mice; conditions: for TNF-α in BALF (AV): group AV; for TNF-α in BALF: individual mice
Protocol: as §1, §2

[3] = tiamulin 40 mg/kg IM, 96 h, listed as Tiamulin-IM

## C=C[C@]1(C)C[C@@H](OC(=O)CSCCN(CC)CC)[C@]2(C)[C@H](C)CC[C@]3(CCC(=O)[C@H]32)[C@@H](C)[C@@H]1O [tiamulin, Tiamulin, reference compound]
[1]; M. pneumoniae strain M129, ≈96 h, read-out: MIC
  MIC: 7.81 ng/mL (≈ 0.0158 µM)
[1]; M. pneumoniae strain M129, read-out: MBC
  MBC: 0.0625 µg/mL (≈ 0.127 µM)
[2]; time 0
  cell counts, total (AV): 30.4125 n*10^5
  cell counts, 中 (neutrophils) (AV): 26.5281 n*10^5
  cell counts, 巨 (macrophages) (AV): 3.545 n*10^5
  cell counts, 淋 (lymphocytes) (AV): 0.3394 n*10^5
[2]; time 96
  cell counts, total (AV): 9.854 n*10^5
  cell counts, 中 (neutrophils) (AV): 1.672 n*10^5
  cell counts, 巨 (macrophages) (AV): 3.529 n*10^5
  cell counts, 淋 (lymphocytes) (AV): 4.653 n*10^5
[2]; time 192
  cell counts, total (AV): 10.35 n*10^5
  cell counts, 中 (neutrophils) (AV): 0.1129 n*10^5
  cell counts, 巨 (macrophages) (AV): 3.034 n*10^5
  cell counts, 淋 (lymphocytes) (AV): 7.204 n*10^5
[2]; tiamulin intramuscular 40 mg/kg
  total number of inflammatory cells in BALF compared with the positive controls: significantly lower
[2]; tiamulin intramuscular 40 mg/kg, 192 h, similar to control group (P> 0.05)
  number of cells in BALF four days following treatment cessation: lower than that of the positive control
[2]; tiamulin orally administered 40 mg/kg
  total number of inflammatory cells in BALF compared with the positive controls: not statistically significant
TNF-α; [3]
  TNF-α in BALF (AV): 25.628 pg/mL
  TNF-α in BALF: 36.6513 pg/mL and 20.2192 pg/mL and 19.4095 pg/mL and 27.905 pg/mL and 23.325 pg/mL and 26.258 pg/mL
TNF-α; tiamulin 40 mg/kg IM, 96 h, listed as TiamulinIM
  TNF-α in BALF (AV): 25.4267 pg/mL
TNF-α; tiamulin 40 mg/kg IM, 192 h
  TNF-α in BALF (AV): 10.6403 pg/mL
TNF-α; tiamulin 40 mg/kg IM, 192 h, listed as Tiamulin-IM
  TNF-α in BALF: 0.9088 pg/mL and 8.569 pg/mL and 21.5375 pg/mL and 21.2768 pg/mL
TNF-α; tiamulin 40 mg/kg PO (fumarate soluble powder), 96 h
  TNF-α in BALF (AV): 17.9906 pg/mL
TNF-α; tiamulin 40 mg/kg PO (fumarate soluble powder), 192 h
  TNF-α in BALF (AV): 9.318 pg/mL
